{"source": "patent US20160051560A1", "about": "“TREATMENTS INVOLVING ESLICARBAZEPINE OR ESLICARBAZEPINE ACETATE” (BIAL - PORTELA & Cª, S.A., priority 2013, published 2016)", "key": {"[1]": {"test_system": "patients with acute manic (including mixed) episode, bipolar I disorder", "experiment": "Study BIA-2093-203: 3-week double-blind, randomised, placebo-controlled, dose-titration study in acute mania", "format": "in vivo, human", "settings": "for YMRS score absolute change from V2 (1 Day) to V7 (21 Days), Mean ± SD / YMRS score absolute change from V2 (1 Day) to V7 (21 Days), Median (range): ITT", "experimental": "Two 3-week multicentre, double-blind, randomised, placebo-controlled studies in acute mania (study BIA-2093-203: dose titrated by response, eslicarbazepine acetate (ESL) 600-1800 mg or 800-2400 mg, once-daily; study BIA-2093-204: fixed doses of 600, 1200 and 1800 mg, once-daily) were followed by a recurrence prevention study consisting of a 2-week open-label period (900 mg, once-daily) continued by a double-blind, parallel-group, fixed dose (300, 900 and 1800 mg, once-daily) period for a minimum of 6 months. The primary endpoint was change in Young Mania Rating Scale (YMRS) in studies BIA-2093-203 and BIA-2093-204, and the proportion of no worsening patients in the Clinical Global Impressions-Bipolar Version (CGI-BP) in study BIA-2093-205.\nStudy BIA-2093-203 (EudraCT No 2005-002131-27) followed a multicentre, double-blind, randomised, parallel-group, placebo-controlled, dose-titration design.\nThis study was conducted at 23 centres across Europe. Patients were randomised (3:3:2) to one of the following treatment groups: (1) ESL starting with 800 mg once daily (QD) and up-titrated in 800 mg steps until 2400 mg QD (maximum dose) according to clinical response, (2) ESL starting with 600 mg QD and up-titrated in 600 mg steps until 1800 mg QD (maximum dose) according to clinical response, and (3) Placebo QD. Patients were followed for up to 3 weeks. The study schedule consisted of a screening visit (V1), randomisation visit (V2, Day 1), and subsequent visits to evaluate clinical response (V3, Day 4; V4, Day 7; V5, Day 10; V6, Day 14 and V7, Day 21). In patients showing no improvement of symptoms, the dose of study medication was increased every 3 days until the maximum doses were reached. […] At the end of the 3-week treatment period, patients who responded to treatment had the option of entering the recurrence prevention study (Study BIA-2093-205).\nStudies BIA-2093-203 and BIA-2093-204 enrolled patients with ages ≧18 years, currently displaying an acute manic (including mixed) episode and with a documented diagnosis of bipolar I disorder according to the DSM-IV criteria (2). Eligible patients should have a Young Mania Rating Scale (YMRS) total score ≧20, with symptoms of the current manic episode starting within two weeks prior to randomization. Patients were excluded if they had history of schizophrenia or schizoaffective disorder, psychotic features or rapid cycling. Patients were also excluded if they were treated with carbamazepine, oxcarbazepine or a depot-neuroleptic. Previous treatment with ESL or history of unresponsiveness, intolerance or hypersensitivity to other dibenzazepine compounds (carbamazepine, oxcarbazepine or licarbazepine) also constituted criteria for exclusion. Patients with clinical relevant risk of harm to self or others and history of substance abuse were also excluded. Women were excluded if they were pregnant or breast-feeding, or if of childbearing potential they were unable to use double-barrier contraception.\nThe following validated instruments were used: YMRS (20), the Clinical Global Impressions-Bipolar Version (CGI-BP) scale (21) and the Montgomery-Åsberg Depression Rating Scale (MADRS) (22). The YMRS score is the sum of 11 scoring items, ranging from 0 to 60 points; higher scores indicate higher mania symptomatology (20). The CGI-BP scale measures severity and treatment-related improvement in mania, depression and overall illness categories. It comprises 3 scales: severity of illness (1—normal to 7—very severely ill, in which 3—mildly ill was used as cut-off value for statistical analysis), change from preceding phase and worst phase (1—very much improved to 7—very much worse, and 8—not applicable) (21). The MADRS score is calculated as the sum of the 10 scoring items, ranging from 0 to 60 points: higher scores indicate higher depression symptomatology (22). […]"}, "[2]": {"test_system": "patients with acute manic (including mixed) episode, bipolar I disorder", "experiment": "Adverse events, Studies BIA-2093-203 and BIA-2093-204 together (safety population)", "format": "in vivo, human", "experimental": "Medical history and demographic information was obtained at the screening visit. A complete physical and neurological examination was performed at screening, V7 or early discontinuation (EDV), V8 and post-study visit (PSV). Vital signs (pulse rate and blood pressure) were determined at every visit. […] Clinically significant abnormalities in laboratory tests, vital signs or 12-lead ECG were considered as AEs.\nSafety was evaluated based on the occurrence of AEs. AEs were documented by the investigator with reference to intensity, dates of occurrence and resolution, outcome and relation to the treatment (causality). Furthermore, each AE was classified as being serious or non-serious. All patients with AEs were followed until their resolution. AEs were coded according to the Medical Dictionary for Regulatory Activities (MedDRA).\nThree study populations were defined for the statistical analyses: safety, intent to treat (ITT), and per protocol (PP). The safety population consisted of all patients who received at least one dose of investigational product. The ITT population consisted of all randomised patients who had at least one post-baseline efficacy assessment. The PP population consisted of all patients who complied with the study protocol without major deviations."}, "[3]": {"settings": "leading to a better tolerability profile; cited from earlier work"}, "[4]": {"settings": "ESL 600 mg (600-1800 mg QD titrated), n = 63"}, "[5]": {"settings": "ESL 800 mg (800-2400 mg QD titrated), n = 57"}, "[6]": {"settings": "ESL 800 mg, n = 57, only study 203"}, "[7]": {"settings": "ESL 600 mg, n = 72, Studies 203 and 204"}}, "data": [{"compound": "CC(=O)O[C@H]1Cc2ccccc2N(C(N)=O)c2ccccc21", "note": "[ESL, (S)-10-acetoxy-10,11-dihydro-5H-dibenz[b,f]azepine-5-carboxamide]", "values": [{"measurement": "MADRS scores under treatment with ESL as compared to placebo", "setting": "[1]; ANCOVA showed no significant difference between the treatment groups at visit 7", "result": "apparent improvement"}, {"measurement": "absolute difference between ESL treatment group and placebo for the YMRS total score", "setting": "[1]; ESL 600 mg", "result": 2.2}, {"measurement": "YMRS score absolute change from V2 (1 Day) to V7 (21 Days), Mean ± SD", "setting": "[1]; [4]", "result": "−12.2 ± 7.9"}, {"measurement": "YMRS score absolute change from V2 (1 Day) to V7 (21 Days), Median (range)", "setting": "[1]; [4]", "result": "−14.0 (−25.0, 14.0)"}, {"measurement": "CGI-BP score changes for mania and overall bipolar illness compared to placebo", "setting": "[1]; ESL 600 mg group, from worst phase only", "result": "significant improvement"}, {"measurement": "absolute difference between ESL treatment group and placebo for the YMRS total score", "setting": "[1]; ESL 800 mg", "result": 4.0}, {"measurement": "YMRS score absolute change from V2 (1 Day) to V7 (21 Days), Mean ± SD", "setting": "[1]; [5]", "result": "−14.1 ± 8.9"}, {"measurement": "YMRS score absolute change from V2 (1 Day) to V7 (21 Days), Median (range)", "setting": "[1]; [5]", "result": "−16.0 (−33.0, 22.0)"}, {"measurement": "CGI-BP score changes for mania and overall bipolar illness compared to placebo", "setting": "[1]; ESL 800 mg group, from preceding and worst phase", "result": "significant improvement"}, {"measurement": "proportion of patients in V7 classified as normal (CGI-BP severity of illness scale) vs placebo", "setting": "[1]; ESL 800 mg group, mania and overall bipolar illness", "result": "significant differences"}, {"measurement": "Any Adverse Events", "setting": "[1]; [6]", "result": "29 (50.9) Number (%) of patients"}, {"measurement": "Diarrhoea", "setting": "[1]; [6]", "result": "2 (3.5) Number (%) of patients"}, {"measurement": "Dizziness", "setting": "[1]; [6]", "result": "5 (8.8) Number (%) of patients"}, {"measurement": "Headache", "setting": "[1]; [6]", "result": "5 (8.8) Number (%) of patients"}, {"measurement": "Nausea", "setting": "[1]; [6]", "result": "4 (7.0) Number (%) of patients"}, {"measurement": "Paraesthesia oral", "setting": "[1]; [6]", "result": "0 (0.0) Number (%) of patients"}, {"measurement": "Somnolence", "setting": "[1]; [6]", "result": "1 (1.8) Number (%) of patients"}, {"measurement": "Vomiting", "setting": "[1]; [6]", "result": "2 (3.5) Number (%) of patients"}, {"measurement": "reduction in YMRS total score as compared with placebo, statistical significance", "setting": "[1]; ESL 600-1800 mg and ESL 800-2400 mg groups", "result": "None of the treatment groups showed a reduction in YMRS total score as compared with placebo that was statistically significant"}, {"measurement": "proportion of patients in full remission (YMRS score <12) at V7 compared to the placebo group", "setting": "[1]; ESL 800-2400 mg group", "result": "significantly higher proportion of patients were in full remission"}, {"measurement": "response rate (≧50% improvement or <12 points in the YMRS score)", "setting": "[1]; ESL 800-2400 mg group", "result": 66.7, "unit": "%"}, {"measurement": "reduction in YMRS total score", "setting": "[1]; ESL 800-2400 mg vs placebo −10.3 (p=0.0523)", "result": "−14.2"}, {"measurement": "serious AE: leukopenia and hyponatremia", "setting": "[2]; ESL 600 mg", "result": 1, "unit": "case"}, {"measurement": "Any Adverse Events", "setting": "[2]; [7]", "result": "38 (52.8) Number (%) of patients"}, {"measurement": "Diarrhoea", "setting": "[2]; [7]", "result": "8 (11.1) Number (%) of patients"}, {"measurement": "Dizziness", "setting": "[2]; [7]", "result": "7 (9.7) Number (%) of patients"}, {"measurement": "Headache", "setting": "[2]; [7]", "result": "8 (11.1) Number (%) of patients"}, {"measurement": "Nausea", "setting": "[2]; [7]", "result": "2 (2.8) Number (%) of patients"}, {"measurement": "Paraesthesia oral", "setting": "[2]; [7]", "result": "0 (0.0) Number (%) of patients"}, {"measurement": "Somnolence", "setting": "[2]; [7]", "result": "2 (2.8) Number (%) of patients"}, {"measurement": "Vomiting", "setting": "[2]; [7]", "result": "4 (5.6) Number (%) of patients"}, {"measurement": "incidence of treatment-related AEs", "setting": "[2]; studies BIA-2093-203 and BIA-2093-204, comparable between treatment groups", "result": "< 35 % of patients"}, {"measurement": "production of toxic metabolites compared to carbamazepine", "setting": "[3]", "result": "reduced production of toxic metabolites"}]}]}
